Test results: patent US8383582B2, “Inhibitor against forming biofilm comprising κ-casein macropeptide” (Industry Foundation of Chonnam National University, priority 2010, dated 2013)

Tests used:
[1] = test system: L. monocytogenes 3990 and 18; experiment: Flow chamber biofilm assay (glass capillary tubes, continuous flow); type: cell-based, Listeria monocytogenes; conditions: 0.4 mg/ml CMP
Description: Under continuous flow conditions, biofilms were grown in glass capillary tubes by using a slight modification of the previously described method (Purevdorj et al., 2002). The flow chambers, with individual channel dimensions of 3 mm×3 mm×50 mm (Stovall Life Sciences, Inc., Greensboro, N.C., USA), were inoculated with 1 ml (˜10^9 CFU/ml) of the overnight cultures of L. monocytogenes grown in TSBYE. The inoculum was injected to fill the inside of the glass tubes by using a syringe. The tubing upstream of the glass tube was clamped, and the system allowed standing without flow for 30 min at room temperature. After inoculation, the capillary tubes were mounted on a standard microscope slide. The system was switched to continuous culture mode by delivering MWB to the home-made carboy with a flow rate of 0.1 ml/min at 30° C. […] The biofilms developed in the flow chambers were monitored by using transmitted light and 10× objective lenses with an Olympus CH2 microscope (Olympus, Tokyo, Japan).

[2] = test system: L. monocytogenes Scott A biofilm cells; experiment: Two-dimensional gel electrophoresis / LC-MS/MS of biofilm cell protein extracts; type: cell-based, Listeria monocytogenes
Description: This biofilm formation protocol was adapted from that used for the microtiter plate assay in this invention, to obtain a sufficient quantity of biofilm cells for two-dimensional gel electrophoresis (2-DE). Biofilms were prepared by using a slight modification of a previously described method (Ren et al., 2004). L. monocytogenes was grown in TSBYE overnight, and a 2.5 ml overnight culture was washed twice with PBS. Then, the cells were inoculated into a 250-ml shake flask containing 100 ml fresh MWB with or without the effective concentration of CMP on 10 g sterilized glass wool (Pyrex fiber glass; Corning, N.Y., USA). The cells were incubated with shaking (250 rpm in a shaking incubator; Vision Scientific Co., Ltd., Korea) at 30° C. to form a biofilm on the glass wool. After 24 h inoculation, the glass wool was retrieved from the culture, and quickly and gently washed twice in 100 ml of 0.85% sodium chloride buffer (within 30 s) at 4° C. The biofilm cells were removed from the glass wool by sonication in 200 ml of 0.85% sodium chloride buffer at 4° C. for 2 min. The buffer was then centrifuged (8,000×g in a VS-21S MT centrifuge; Vision Scientific Co., Ltd.) for 10 min at 4° C. to precipitate the biofilm cells. These cells were washed twice by centrifugation (8,000×g, 10 min, 4° C.) with 0.85% sodium chloride buffer; the cell pellets were flash-frozen in liquid nitrogen. While sonicating, suspended biofilm cells with an optical density at 600 nm of 2 were harvested by centrifugation (8,000×g) at room temperature for 10 min in an Eppendorf tube. The cell pellets were then flash-frozen in liquid nitrogen and kept at −80° C. until protein extraction.
The biofilm cells harvested from the glass wool were suspended in the same lysis buffer (TE buffer; 40 mM Tris, 1 mM EDTA, pH 8.0) and lysed by using Ultraschallprozessor UP200S (amplification 70, 0.5 cycle; Dr. Hielscher GmbH) 20 times for 30 s on ice. Following sonication, the unlysed cells, cell debris, and glass fibers were removed by centrifugation (8,000×g, 4° C.), and the supernatant fluids were recovered.
Protein samples were precipitated by using the phenol protocol of Hanna et al. (2000). The protein concentration was determined by using the modified Bradford assay method (Ramagli, 1999). The protein samples were stored at −80° C. until proteomic analysis.
The method described by Kim et al. (2006) with slight modifications was used for 2-DE. In the first dimension of isoelectric focusing (IEF), precast immobilized pH gradient (IPG) strips, with a nonlinear gradient from pH 3 to 10 (Bio-Rad Laboratories, Richmond, Calif., USA), were rehydrated for 12-18 h with 500 μg of protein in 300 μl of rehydration buffer (8 M urea, 2% CHAPS, 50 mM DTT, 10% isopropanol, 5% glycerol, 0.002% bromophenol blue, 0.2% ampholytes, water). In accordance with the manufacturer's instructions, focusing was performed by using a Protean IEF cell system (Bio-Rad Laboratories) at 20° C. under 60,000 Vh. After IEF, the strips were incubated for 10 min in equilibration buffer I (6 M urea, 2% SDS, 20% glycerol, 130 mM DTT, 0.375 M Tris-HCl [pH 8.8]), followed by another 10 min in equilibration buffer II (6 M urea, 2% SDS, 20% glycerol, 135 mM iodoacetamide, 0.375 M Tris-HCl [pH 8.8]). After equilibration, the strips were transferred to 12.5% sodium dodecyl sulfate (SDS)-polyacrylamide gels (20×22 cm) for running in the second dimension.
The proteins were separated by using a Protean II xi system (Bio-Rad Laboratories) with 20 mA per gel at 4° C. The protein spots were visualized by blue-silver staining (Candiano et al., 2004). The stained gels were then scanned with a densitometric scanner (UTA 2100XL; UMAX, Dallas, Tex., USA), and the spots were analyzed by using the PDQuest software (Bio-Rad Laboratories) in accordance with the manufacturer's instructions. Four gels resulting from two independent experiments were obtained, and two gels of good quality were used for analysis. […]

[3] = presence of 0.4 mg/ml CMP vs absence

## κ-casein macropeptide [CMP]
[1]; same incubation times as control (12-18 h)
  microcolonies or aggregates seen: very few microcolonies or aggregates
[1]; strains 3990 and 18, 24 h, glass capillary tubes, continuous flow
  biofilm biomass compared to control: decreased biomass
[2]; 0.4 mg/ml CMP, about 320 spots visualized
  protein spots with increase or decrease in amounts compared to the control: two and seven spots were up- and down-regulated
[2]; [3]
  FC, Fold difference in biofilm: spot 0302 enolase: −3.8 Fold
  FC, Fold difference in biofilm: spot 2004 glutamine synthetase: +2.4 Fold
  FC, Fold difference in biofilm: spot 4405 6-phosphofructokinase: −2.8 Fold
  FC, Fold difference in biofilm: spot 5104 hypothetical protein Smal_0271: ∇
  FC, Fold difference in biofilm: spot 5105 conserved hypothetical protein: −2.0 Fold
  FC, Fold difference in biofilm: spot 5206 Gap: +2.9 Fold
  FC, Fold difference in biofilm: spot 5207 hypothetical protein Smal_0271: −2.4 Fold
  FC, Fold difference in biofilm: spot 6103 glutamine synthetase: −2.0 Fold
  FC, Fold difference in biofilm: spot 7202 phosphoglycerate mutase 1 family: −3.2 Fold
